Laboratory results reported in US20050048508A1, “Trehalose receptor and method for detecting trehalose with the same” (KABUSHIKI KAISHA HAYASHIBARA SEIBUTSU KAGAKU KENKYUJO, priority 2002, published 2005).
One block for each molecule: values may come before it. Residues, ends and D or L forms follow the SMILES beside them.

Molecular target: T1, T1R3 with G protein α-subunits (α15 and α16/Z chimeric protein) (Mus musculus, UniProt Q925D8, I706N)
T1 construct: expressed in transfected cells; host or cells: 293 cells, RCB 1637 (human embryonic kidney)
T1 sequence (Q925D8 21-858 I706N): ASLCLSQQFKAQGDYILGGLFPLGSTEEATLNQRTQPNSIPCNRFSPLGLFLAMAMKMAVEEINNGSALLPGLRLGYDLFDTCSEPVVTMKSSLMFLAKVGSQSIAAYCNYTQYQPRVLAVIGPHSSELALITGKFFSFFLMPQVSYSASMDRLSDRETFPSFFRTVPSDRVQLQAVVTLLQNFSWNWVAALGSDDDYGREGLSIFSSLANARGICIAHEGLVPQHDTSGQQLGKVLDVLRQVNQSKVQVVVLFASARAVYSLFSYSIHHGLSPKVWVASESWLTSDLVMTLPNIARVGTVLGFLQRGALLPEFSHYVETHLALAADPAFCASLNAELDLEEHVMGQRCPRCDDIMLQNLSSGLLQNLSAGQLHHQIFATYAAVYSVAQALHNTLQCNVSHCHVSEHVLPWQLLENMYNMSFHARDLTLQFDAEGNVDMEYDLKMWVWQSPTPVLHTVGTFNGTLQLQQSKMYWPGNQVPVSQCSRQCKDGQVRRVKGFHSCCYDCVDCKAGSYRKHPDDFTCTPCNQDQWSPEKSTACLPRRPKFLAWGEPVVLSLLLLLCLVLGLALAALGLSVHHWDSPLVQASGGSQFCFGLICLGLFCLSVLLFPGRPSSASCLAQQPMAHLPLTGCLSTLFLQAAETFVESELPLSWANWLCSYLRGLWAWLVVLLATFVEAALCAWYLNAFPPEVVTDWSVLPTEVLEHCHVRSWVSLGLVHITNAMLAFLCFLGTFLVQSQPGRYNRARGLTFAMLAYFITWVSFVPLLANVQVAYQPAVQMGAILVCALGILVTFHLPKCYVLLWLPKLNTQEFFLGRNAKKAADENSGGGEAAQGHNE
Test: Intracellular calcium ion assay, 293 cells coexpressing G protein α-subunits and T1R3 (trehalose receptor)
Format: cell-based
Conditions: Table 4: sweet taste substances on cells coexpressing G protein α-subunits and T1R3, measured similarly as in Example 4
Experimental: The coexpression vector for the G protein α-subunit α15 and the G protein α16/Z chimeric protein (hereinafter designated as “G protein α-subunits”) obtained in Example 1-3 was gene transferred to 293 cells, RCB 1637, a human embryonic kidney cell line, available from the Riken Bioresource Center, Ibaraki, Japan, by conventional lipofection. The gene transferred cells were suspended in Dulbecco's Modified Eagle's Medium (D-MEM) supplemented with 1 mg/L of “PUROMYCIN”, a trade mane of puromycin commercialized by Edge Biosystems, MD, USA, and 10% (v/v) of fetal calf serum to give a cell density of 2×10^6 cells/ml and cultured in a plastic petri dish for cell culture. After 10 to 14 days of incubation, a puromycin-resistant cell colony was collected and confirmed its production of the G protein α-subunit proteins with an index of their mRNA level by conventional RT-PCR. Thus, a cell line capable of expressing the G protein α-subunit proteins was established. To the cells were gene transferred an expression vector for the sweet taste receptor protein T1R1, T1R2, or T1R3 in Example 2-2; or a coexpression vector for a pair of T1R1 and T1R2, T1R1 and T1R3, or T1R2 and T1R3 by conventional lipofection. The resulting cells were suspended in D-MEM supplemented with 1 mg/L of “PUROMYCIN”, 500 mg/L of “GENETICIN”, and 10% (v/v) of fetal calf serum and cultured in a plastic petri dish for cell culture. After 10 to 14 days of incubation, a cell colony resistant to both of the above drugs was collected and confirmed that the transferred gene had been expressed intracellularly as expected by conventional RT-PCR at a mRNA level. Thus, a cell, which had coexpressed the desired G proteins and sweet taste receptors, was obtained. As a control, a cell, into which an expression vector with no G protein α-subunit protein gene or sweet taste receptor protein gene, was prepared and used.
The captioned reactivity test was conducted according to a conventional intracellular calcium ion assay: 293 Cells prepared in Example 3, capable of coexpressing the G protein α-subunits and the sweet taste receptor(s), were cultured in a plastic petri dish for cell culture until reaching its confluent phase. Thereafter, the cells were detached from the inner surface of the petri dish with a 0.05% (v/v) trypsin solution and a 0.53 mM EDTA solution, suspended in D-MEM supplemented with 10% (v/v) fetal calf serum to give a cell density of 1×10^6 cells/ml, and allowed to intake “FLUO-4. AM”, a reagent for detecting intracellular calcium ion commercialized by Molecular Probes Inc., Ore., USA, by adding to the cell suspension to give a final concentration of 2 μM and incubating the cells at 37 ° C. for 30 to 90 min. The resulting cells were washed with a buffer for detecting calcium ion, which contained 10 mM HEPES (pH 7.4), 130 mM sodium chloride, 5.4 mM potassium chloride, 2 mM calcium chloride, 1 mM magnesium chloride, 5.5 mM D-glucose, 0.1% (v/v) calf serum albumin, and 1 mM sodium pyruvate to remove the reagent remained extracellularly; suspended in a fresh preparation of the same buffer to give a cell density of 2.67 ×10^7 cells/ml; filtered with a membrane with a pore size of 100 μm mesh; and allowed to stand at 25° C. for 30 min. Two milliliters of the resultant cell suspension was injected into a glass cuvette, commercialized by Hitachi, Ltd., Tokyo, Japan, and analyzed on “HITACHI 650-40”, a fluorescence spectrophotometer commercialized by Hitachi, Ltd., Tokyo, Japan. […]

SMILES: C[C@H](N)C(=O)O [Alanine]
Influx of calcium ion: Negative

SMILES: NCC(=O)O [L-Glycine]
Influx of calcium ion: Negative

SMILES: OC[C@H]1O[C@H](O[C@]2(CCl)O[C@H](CCl)[C@@H](O)[C@@H]2O)[C@H](O)[C@@H](O)[C@H]1Cl [Sucralose]
Influx of calcium ion: Negative

SMILES: COC(=O)[C@H](Cc1ccccc1)NC(=O)[C@@H](N)CC(=O)O [Aspartame] (HELM PEPTIDE1{D.F.[CO[*:1]]}$$$$V2.0)
Influx of calcium ion: Negative

Second part, the molecule after the results:

Influx of calcium ion: Negative
SMILES: O=C[C@H](O)[C@@H](O)[C@@H](O)[C@H](O)CO [Galactose]

Influx of calcium ion: Negative
SMILES: OC[C@@H](O)[C@@H](O[C@H]1O[C@H](CO)[C@@H](O)[C@H](O)[C@H]1O)[C@H](O)[C@@H](O)CO [Maltitol]

Influx of calcium ion: Negative
SMILES: O=C(CO)[C@@H](O)[C@H](O)[C@H](O)CO [Fructose]

Influx of calcium ion: Negative
SMILES: OC[C@@H](O)[C@@H](O)CO [Erythritol]
